Measured values: patent US11167059B2, “Compositions with reactive ingredients, and wound dressings, apparatuses, and methods” (KCI Licensing, Inc., priority 2010, dated 2021)

Experiments:
[1] = test system: Methicillin-resistant Staphylococcus aureus (MRSA); assay: inhibition zone on MRSA monolayer in petri dish; assay type: cell-based; settings: 30 μg control dose, 18 hours at 37° C.
Protocol: Experiments were performed for some of the present reactive agents (and/or resulting solutions) to investigate their antibacterial properties. In a first experiment, an even monolayer of Methicillin-resistant Staphylococcus aureus (MRSA) bacteria was spread across the surface of each of several petri dishes, and either a 30 μg control dose of Vancomycin, or an 8 mm×5 mm piece of sponge was placed on each petri dish. The pieces of sponge included: a piece of polyurethane foam coated with a silver (Ag), a piece of dry silicone foam, a piece of silicone foam impregnated with a Polyhexanide solution, a piece of silicone foam deposited with Ca(ClO)2 salt, and a piece of silicone foam deposited with NaClO salt. After placement of the pieces of foam, saline was dropped onto the foams deposited with Ca(ClO)2 and NaClO salts, respectively, Each petri dish was incubated for eighteen (18) hours at 37° C., and the clear area in which the bacteria had been killed (inhibition zone) was measured. […] In a second, similar experiment, the monolayer of bacteria was E. Coli instead of MRSA, and the remainder of the second experiment was substantially the same as the first. The results of the second experiment were also similar. […] From these preliminary experiments, the inventors believe the present reactive agents and the resulting solutions to have effective antimicrobial properties. […]

[2] = compatibility of suspension agents with Ca(OCl)2 (OCl− concentration by UV-Vis); assay type: physicochemical; settings: about 13 mg Ca(OCl)2 in methylene chloride solution of agent, about one hour in the dark
Protocol: FIG. 6B depicts a chart illustrating the correlation of hypochlorite concentration from the UV absorbance of FIG. 6A with corresponding concentrations obtained by Iodine titration. FIG. 6C depicts a chart of OCl^− concentration in solutions with certain of the present suspension agents, including a control of only Ca(OCl)2 in solution (of methylene chloride), Ca(OCl)2 in PCL-1 solution having 0.5 g of PCL per 100 mL of methylene chloride; Ca(OCl)2 in PCL-2 solution having 1.0 g of PCL per 100 mL of methylene chloride; and Ca(OCl)2 in solution with TWEEN 80 (also known as polysorbate 80) having 0.1 g of TWEEN 80 per 10 g of methylene chloride. […] For each solution, approximately 13 mg of Ca(OCl)2 was added to each methylene chloride solution and the solution was placed in the dark for a period of about one hour. Then 5 mL of distilled water was added to each solution, and each was shaken to mix its respective ingredients. […] After settling, for each solution, one milliliter of the aqueous layer was removed and mixed with 10 mL of 0.1 N NaOH (e.g., to increase the pH to ensure all hypochlorous acid is converted to hypochlorite for complete capture of active chlorine), and evaluated with UV-Vis spectroscopy to determine the concentration of OCl (e.g., to determine whether the OCl— had degraded or been consumed by the polymer).

| Compound | inhibition zone [1] | compatibility of suspension agent with Ca(OCl)2 [2] |
| --- | --- | --- |
| CN[C@H](CC(C)C)C(=O)N[C@H]1C(=O)N[C@@H](CC(N)=O)C(=O)N[C@H]2C(=O)N[C@H]3C(=O)N[C@H](C(=O)N[C@H](C(=O)O)c4cc(O)cc(O)c4-c4cc3ccc4O)[C@H](O)c3ccc(c(Cl)c3)Oc3cc2cc(c3O[C@@H]2O[C@H](CO)[C@@H](O)[C@H](O)[C@H]2O[C@H]2C[C@](C)(N)[C@H](O)[C@H](C)O2)Oc2ccc(cc2Cl)[C@H]1O [Vancomycin] | 200 mm^2 | – |
| polysorbate 80 [TWEEN 80] | – | compatible with Ca(OCl)2 |
